Data reported in patent publication EP0561850B1, “7-SUBSTITUTED-6-FLUORO-1,4-DIHYDRO-4-OXO-QUINOLINE-3-CARBOXYLIC ACID COMPOUNDS USEFUL AS ANTIBACTERIAL AGENTS” (priority 1990, dated 1992).
Converted amounts (≈) assume the structure as drawn. Where two headings read alike, the source gives them in different places.

Key:
[1] = test system: Staphylococcus aureus S-127; test: In vitro antimicrobial activity against aerobes, broth microdilution (NCCLS 1985); format: cell-based; settings: S127, read after 16-18 hours
Description: For aerobic microorganisms, a cation supplemented Mueller Hinton Broth (BBL) was used whereas the Anaerobe Broth MIC (Difco) was used for anaerobic microorganisms. An agar Dilution method was employed for certain aerobic microorganisms using Mueller Hinton II Agar (BBL) and a Cathra multipoint inoculating device which delivered 10^4 cfu/spot of the inoculum on the agar surface. MICs were read after 16-18 hours and 48 hours of incubation in case of microbes growing aerobically and anaerobically respectively.

[2] = test system: Enterobacter cloacae S-130; test: Microbroth dilution (MHB) method, NCCLS M7-A2; format: cell-based; settings: 35 °C/18 hr
Description: (§1) The test organisms were obtained from ATCC and clinical laboratories. The 96-well microtitre plates containing […] of serially diluted test compounds in Mueller Hinton Broth (MHB) (conc. range 64-0.03 µg/ml) were inoculated with […] of bacterial suspension in MHB so that an inoculum size of 5 x 10^5 cfu/ml was achieved.
(§2) EC. (S- 63): Eschericia coli Ecl. (S- 130): Enterobacter cloacae Pa. (S- 67): Pseudomonas aeruginosa Kp. (S- 80): Klebsiella pneumoniae Pr.
(§3) Microbroth Dilution (MHB) method; Inoculum, 5 x 10^5 cfu/ml; Incubation 35 °C/18 hr

[3] = test system: Eschericia coli S-63; test: Microbroth dilution (MHB) method, NCCLS M7-A2; format: cell-based; settings: Ec S-63, inoculum 5 x 10^5 cfu/ml, 35 °C/18 hr
Description: as §1, §2, §3

[4] = test system: Klebsiella pneumoniae S-80; test: Microbroth dilution (MHB) method, NCCLS M7-A2; format: cell-based; settings: Kp S-80, MHB, inoculum 5 x 10^5 cfu/ml, 35 °C/18 hr
Description: as §1, §2, §3

[5] = test system: Providencia rettgeri S-121; test: Microbroth dilution (MHB) method, NCCLS M7-A2; format: cell-based; settings: 35 °C/18 hr
Description: as §1, §2, §3

[6] = test system: Pseudomonas aeruginosa S-67; test: Microbroth dilution (MHB) method, NCCLS M7-A2; format: cell-based; settings: Pa S-67, MHB, inoculum 5 x 10^5 cfu/ml, 35 °C/18 hr
Description: as §1, §2, §3

[7] = test system: Staphylococcus aureus S-127; test: Microbroth dilution (MHB) method, NCCLS M7-A2; format: cell-based; settings: 35 °C/18 hr
Description: as §1, §2, §3

[8] = test system: Sa 127M; test: Microbroth dilution (MHB) method, NCCLS M7-A2; format: cell-based, Staphylococcus aureus; settings: inoculum 5 x 10^5 cfu/ml, 35 °C/18 hr
Description: as §1, §2, §3

[9] = Enterobacter cloacae, S130, Ecl S-130, inoculum 5 x 10^5 cfu/ml, read-out: MIC
[10] = Klebsiella pneumoniae, S80, read-out: MIC
[11] = Providencia rettgeri, S121, Pr S-121, inoculum 5 x 10^5 cfu/ml, read-out: MIC
[12] = Pseudomonas aeruginosa, S67, read-out: MIC
[13] = Staphylococcus aureus, S127, Sa S-127, inoculum 5 x 10^5 cfu/ml, read-out: MIC
[14] = Staphylococcus aureus, read-out: MIC
[15] = Ecl S-130, inoculum 5 x 10^5 cfu/ml
[16] = Pr S-121, inoculum 5 x 10^5 cfu/ml
[17] = Sa S-127, inoculum 5 x 10^5 cfu/ml

| Compound | MIC [1] | MIC [2, 9] | MIC ([3]; read-out: MIC) | MIC [4, 10] | MIC [5, 11] | MIC [6, 12] | MIC [7, 13] | MIC [8, 14] | MIC [2, 15] | MIC [3] | MIC [4] | MIC [5, 16] | MIC [6] | MIC [7, 17] | MIC [8] |
| --- | --- | --- | --- | --- | --- | --- | --- | --- | --- | --- | --- | --- | --- | --- | --- |
| N[C@@H]1CN(c2c(F)cc3c(=O)c(C(=O)O)cn(C4CC4)c3c2F)C[C@@H]1n1ccnn1 (relative stereo) [Example 17, 7-[cis-3-Amino-4-(1,2,3-triazol-1-yl)-pyrrolidin-1-yl]-1-cyclopropyl-6,8-difluoro-1,4-dihydro-4-oxo-quinoline-3-carboxylic acid] | 1 mg/L (≈ 2.4 µM) | – | – | – | – | – | – | – | – | – | – | – | – | – | – |
| O=C(O)c1cn(C2CC2)c2nc(N3CC[C@H](n4ccnn4)C3)c(F)cc2c1=O [Example 5] | ≤ 0.03 mg/L | – | – | – | – | – | – | – | – | – | – | – | – | – | – |
| Cc1c(F)c(N2CCC(n3cncn3)C2)c(F)c2c1c(=O)c(C(=O)O)cn2C1CC1 (centres unmarked) [Example 23, 1-Cyclopropyl-6,8-difluoro-5-methyl-7-[3-(1,2,4-triazol-1-yl)pyrrolidin-1-yl]-1,4-dihydro-4-oxo-quinoline-3-carboxylic acid] | – | 0.25 mg/L (≈ 0.602 µM) | 0.12 mg/L (≈ 0.289 µM) | 0.5 mg/L (≈ 1.2 µM) | 0.5 mg/L (≈ 1.2 µM) | 4 mg/L (≈ 9.63 µM) | ≤ 0.015 mg/L | ≤ 0.015 mg/L | – | – | – | – | – | – | – |
| C[C@H]1COc2c(N3CCC(n4ccnn4)C3)c(F)cc3c(=O)c(C(=O)O)cn1c23 (single isomer, unassigned; (-)) [Example 38] | – | 1 mg/L (≈ 2.5 µM) | 0.25 mg/L (≈ 0.626 µM) | 1 mg/L (≈ 2.5 µM) | 1 mg/L (≈ 2.5 µM) | 8 mg/L (≈ 20 µM) | 0.12 mg/L (≈ 0.3 µM) | 0.5 mg/L (≈ 1.25 µM) | – | – | – | – | – | – | – |
| Norfloxacin - choline salt [MFLX-, reference compound] | – | – | – | – | – | – | – | – | .25 mg/L | .06 mg/L | .25 mg/L | .12 mg/L | 1 mg/L | 2 mg/L | 16 mg/L |
| Cc1c(F)c(N2CCC(n3ccnn3)C2)c(F)c2c1c(=O)c(C(=O)O)cn2C1CC1 (centres unmarked) [Example 24, 1-Cyclopropyl-6,8-difluoro-5-methyl-7-[3-(1,2,3-triazol-1-yl)pyrrolidin-1-yl]-1,4-dihydro-4-oxo-quinoline-3-carboxylic acid] | – | 0.25 mg/L (≈ 0.602 µM) | 0.12 mg/L (≈ 0.289 µM) | 0.5 mg/L (≈ 1.2 µM) | 0.5 mg/L (≈ 1.2 µM) | 4 mg/L (≈ 9.63 µM) | ≤ 0.015 mg/L | ≤ 0.015 mg/L | – | – | – | – | – | – | – |
| COc1c(N2CC[C@H](n3ccnn3)C2)c(F)cc2c(=O)c(C(=O)O)cn(C3CC3)c12 [Example 31, 1-Cyclopropyl-6-fluoro-7-[3S-(1,2,3-triazol-1-yl)pyrrolidin-1-yl]-8-methoxy-1,4-dihydro-4-oxo-quinoline-3-carboxylic acid] | – | 0.5 mg/L (≈ 1.21 µM) | 0.12 mg/L (≈ 0.29 µM) | 0.25 mg/L (≈ 0.605 µM) | 0.5 mg/L (≈ 1.21 µM) | 2 mg/L (≈ 4.84 µM) | ≤ 0.015 mg/L | ≤ 0.015 mg/L | – | – | – | – | – | – | – |
| Cc1cn(C2CCN(c3c(F)c(C)c4c(=O)c(C(=O)O)cn(C5CC5)c4c3F)C2)nn1 (centres unmarked) [Example 21, 1-Cyclopropyl-6,8-difluoro-5-methyl-7-[3-(4-methyl-1,2,3-triazol-1-yl)pyrrolidin-1-yl]-1,4-dihydro-4-oxo-quinoline-3-carboxylic acid] | – | 0.25 mg/L (≈ 0.582 µM) | 0.06 mg/L (≈ 0.14 µM) | 0.25 mg/L (≈ 0.582 µM) | 0.12 mg/L (≈ 0.279 µM) | 2 mg/L (≈ 4.66 µM) | 0.015 mg/L (≈ 0.0349 µM) | 0.015 mg/L (≈ 0.0349 µM) | – | – | – | – | – | – | – |
| Cc1cn(C2CCN(c3c(F)c(N)c4c(=O)c(C(=O)O)cn(C5CC5)c4c3F)C2)nn1 (centres unmarked) [Example 25, 5-Amino-1-cyclopropyl-6,8-difluoro-7-[3-(4-methyl-1,2,3-triazol-1-yl)pyrrolidin-1-yl]-1,4-dihydro-4-oxo-quinoline-3-carboxylic acid] | – | 0.25 mg/L (≈ 0.581 µM) | 0.06 mg/L (≈ 0.139 µM) | 0.25 mg/L (≈ 0.581 µM) | 0.25 mg/L (≈ 0.581 µM) | 2 mg/L (≈ 4.65 µM) | ≤ 0.015 mg/L | 0.03 mg/L (≈ 0.0697 µM) | – | – | – | – | – | – | – |
| CCn1cc(C(=O)O)c(=O)c2cc(F)c(N3CCNCC3)cc21 [MFLX, Norfloxacin, reference compound] | – | 0.12 mg/L (≈ 0.376 µM) | 0.06 mg/L (≈ 0.188 µM) | 0.12 mg/L (≈ 0.376 µM) | 1 mg/L (≈ 3.13 µM) | 1 mg/L (≈ 3.13 µM) | 1 mg/L (≈ 3.13 µM) | 16 mg/L (≈ 50.1 µM) | – | – | – | – | – | – | – |
| C[C@H]1COc2c(N3CCC(n4cncn4)C3)c(F)cc3c(=O)c(C(=O)O)cn1c23 (single isomer, unassigned; (-)) [Example 40] | – | 1 mg/L (≈ 2.5 µM) | 1 mg/L (≈ 2.5 µM) | 1 mg/L (≈ 2.5 µM) | 0.5 mg/L (≈ 1.25 µM) | 8 mg/L (≈ 20 µM) | 1 mg/L (≈ 2.5 µM) | 0.5 mg/L (≈ 1.25 µM) | – | – | – | – | – | – | – |
| Cc1nnn(C2CCN(c3c(F)cc4c(=O)c(C(=O)O)cn(C5CC5)c4c3F)C2)c1C (centres unmarked) [Example 26, 1-Cyclopropyl-6,8-difluoro-7[3-(4,5-dimethyl-1,2,3-triazol-1-yl)pyrrolidin-1-yl]-1,4-dihydro-4-oxo-quinoline-3-carboxylic acid] | – | 2 mg/L (≈ 4.66 µM) | 0.25 mg/L (≈ 0.582 µM) | 1 mg/L (≈ 2.33 µM) | 1 mg/L (≈ 2.33 µM) | 8 mg/L (≈ 18.6 µM) | 0.03 mg/L (≈ 0.0699 µM) | 0.06 mg/L (≈ 0.14 µM) | – | – | – | – | – | – | – |
| N,N,N-Trimethyl-N-(2-hydroxyethyl) ammonium 1- cyclopropyl-6,8-difluoro-7-[3-(4-methyl-1,2,3-triazol-1-yl)pyrrolidin-1-yl]-1,4-dihydro-4-oxo-quinoline-3-carboxylate [Example 35] | – | – | – | – | – | – | – | – | .5 mg/L | .25 mg/L | .25 mg/L | .25 mg/L | 4 mg/L | ≤.015 mg/L | .03 mg/L |
| O=C(O)c1cn(C2CC2)c2c(F)c(N3CCC(n4ccnn4)C3)c(F)c(O)c2c1=O (centres unmarked) [Example 50, 1-Cyclopropyl-5-hydroxy-6,8-difluoro-7-[-3-(1,2,3-triazol-1-yl)-pyrrolidin-1-yl]-1,4-dihydro-4-oxo-quinoline-3-carboxylic acid] | – | 2 mg/L (≈ 4.79 µM) | 1 mg/L (≈ 2.4 µM) | 1 mg/L (≈ 2.4 µM) | 0.06 mg/L (≈ 0.144 µM) | 16 mg/L (≈ 38.3 µM) | 0.25 mg/L (≈ 0.599 µM) | 0.25 mg/L (≈ 0.599 µM) | – | – | – | – | – | – | – |
| COc1c(N2CCC(n3cc(C)nn3)C2)c(F)cc2c(=O)c(C(=O)O)cn(C3CC3)c12 (centres unmarked) [Example 33] | – | 1 mg/L (≈ 2.34 µM) | 0.12 mg/L (≈ 0.281 µM) | 1 mg/L (≈ 2.34 µM) | 2 mg/L (≈ 4.68 µM) | 8 mg/L (≈ 18.7 µM) | ≤ 0.015 mg/L | ≤ 0.015 mg/L | – | – | – | – | – | – | – |
| Cc1cnnn1C1CCN(c2c(F)cc3c(=O)c(C(=O)O)cn(C4CC4)c3c2F)C1 (centres unmarked) [Example 22, 1-Cyclopropyl-6,8-difluoro-7-[3-(5-methyl-1,2,3-triazol-1-yl)pyrrolidin-1-yl]-1,4-dihydro-4-oxo-quinoline-3-carboxylic acid] | – | 0.25 mg/L (≈ 0.602 µM) | 0.25 mg/L (≈ 0.602 µM) | 0.5 mg/L (≈ 1.2 µM) | 0.25 mg/L (≈ 0.602 µM) | 4 mg/L (≈ 9.63 µM) | ≤ 0.015 mg/L | 0.12 mg/L (≈ 0.289 µM) | – | – | – | – | – | – | – |
| N,N,N-Trimethyl-N-(2-hydroxyethyl)ammonium-1-cyclopropyl-6,8-difluoro-7-[3-(1,2,4-triazol-1-yl)pyrrolidin-1-yl]-1,4-dihydro-4-oxo-quinoline-3-carboxylate [Example 37] | – | – | – | – | – | – | – | – | 2 mg/L | .5 mg/L | 1 mg/L | 1 mg/L | 8 mg/L | .06 mg/L | .25 mg/L |
